Test results reported in ChEMBL document CHEMBL1131959, “Synthesis of glucuronides of multidrug resistance reversing drug MS-209” (Bioorg Med Chem Lett, 1999).
Active and inactive are the calls of the source. The calls are words filed in the database; no cut-off is given here.

What was measured:
Tumor Cell line [1] = experiment: Multidrug resistant(MDR) reversing activity in vitro in human tumor cells; Inactive; assay type: functional, cell-based
Tumor Cell line [2] = experiment: Multidrug resistant(MDR) reversing activity in vitro in human tumor cells; Active; assay type: functional, cell-based

`O=C(O)[C@H]1O[C@@H](O[C@H](COc2cccc3ncccc23)CN2CCN(C(=O)C(c3ccccc3)c3ccccc3)CC2)[C@H](O)[C@@H](O)[C@@H]1O` was tested, and the Reversing activity (Tumor Cell line [1]) was “inactive”.
`O=C(C(c1ccccc1)c1ccccc1)N1CCN(C[C@@H](O)COc2cccc3ncccc23)CC1` was tested, and the Reversing activity (Tumor Cell line [2]) was “Active”.
With `O=C(O)[C@H]1O[C@@H](O[C@@H](COc2cccc3ncccc23)CN2CCN(C(=O)C(c3ccccc3)c3ccccc3)CC2)[C@H](O)[C@@H](O)[C@@H]1O` the Reversing activity (Tumor Cell line [1]) was “inactive”.
